The values that follow come from patent publication US20250250298A1, “ONCOLYTIC PEPTIDE AND USE THEREOF” (Rise Biopharmaceuticals Inc., priority 2022, published 2025).

Assay [1] deals with PC9 (Human non-small cell lung cancer cell). Kind of assay: MTT cytotoxicity, PC9. It counts as cell-based. The note with it: PC9, 24 hours incubation. The source says: (§1) The MTT assay is a colorimetric method for measuring the activity of enzymes in living cells that reduces Thiazolyl blue tetrazolium bromide (MTT) to formazan dyes showing a purple color. In this embodiment, a colorimetric 3-(4.5-dimethylthiazol-2-yl)-2.5-diphenyltetrazodium bromide (MTT) viability assay was used to assess the in vitro cytotoxicity of oncolytic peptides.
(§2) The half inhibition concentration (IC50) is the concentration required by the oncolytic peptides to reach fifty percent inhibition. In one embodiment, the oncolytic peptides were used for IC50 test via MTT colorimetric assay.
(§3) Human lung cancer lines PC9 and A549 and murine pancreatic cancer cell line Panc02 were cultured in RPMI medium supplemented with 10% fetal bovine serum and antibiotic in this embodiment. Additionally, murine hepatoma cell line Hepa 1-6, murine melanoma cell line B16-F10, murine fibrosarcoma cell line MN-11, murine mammary cancer cell line E0771 and human diploid fibroblast (HFW) were cultured in DMEM medium supplemented with 10% fetal bovine serum and antibiotic. Cells were cultured in a humidified incubator containing 5% CO2 at 37° C.
(§4) All cancer cell lines were seeded in a 96-well plate with a concentration of 5000-8000 cells/100 μl/well and incubated for 24 hrs. After medium was removed, 100 μl fresh medium containing peptide (ranging from 50 μM to 0.8 μM) was added to the wells. Following 24 hours incubation, fresh medium with MTT (0.5 mg/ml) was replaced and incubated for 3 hours. After medium/MTT was removed, DMSO was added at 100 μl for dissolving the formazan crystal. Cell survival rate was calculated by measuring the absorbance at 540 nm using a Multi-labeled Microplate Reader (Sunrise™, TECAN).

The next assay has as its system RBC (Human blood cell). Description: Cytotoxicity, RBC. The assay is classed as cell-based.
Source text: as §2

Assay [2] has as its system SAS (Human tongue carcinoma). Kind of assay: MTT cytotoxicity, SAS. The assay is classed as cell-based. As to conditions: 24 hours incubation.
Source text: as §1, §2, §4

The subject of assay [3] is A375 (human malignant melanoma). Description: MTT cytotoxicity, A375. As to conditions: A375, 24 hours incubation. It counts as cell-based.
Source text: as §1, §2, §4

The next assay concerns HFW (Human fibroblast). Kind of assay: MTT cytotoxicity, HFW. The assay is classed as cell-based. As to conditions: 24 hours incubation.
Source text: as §1, §2, §3, §4

For assay [4], the system named is EO771 (Murine mammary adenocarcinoma). Description: MTT cytotoxicity, EO771. The assay is classed as cell-based. As to conditions: EO771, 24 hours incubation.
Source text: as §1, §2, §3, §4

Assay [5] has as its system HepG2 Cancer Cells (Human hepatocellular carcinoma). Kind of assay: MTT cytotoxicity, HepG2. It counts as cell-based. The note with it: HepG2, 24 hours incubation.
Source text: as §1, §2, §4

Assay [6] relates to B16-F10 (Murine skin malignant melanoma). Description: MTT cytotoxicity, B16-F10. As to conditions: B16-F10, 24 hours incubation. The assay is classed as cell-based.
Source text: as §1, §2, §3, §4

For assay [7], the system named is Hepa I-6 (Murine hepatocellular carcinoma). Description: MTT cytotoxicity, Hepa 1-6. As to conditions: Hepa I-6, 24 hours incubation. The assay is classed as cell-based.
Source text: as §1, §2, §3, §4

The subject of assay [8] is A549 (Human non-small cell lung cancer cell). Description: MTT cytotoxicity, A549. The assay is classed as cell-based. The note with it: A549, 24 hours incubation.
Source text: as §1, §2, §3, §4

For assay [9], the system named is HUVEC (Human Umbilical Vein Endothelial (Cell)). Description: MTT cytotoxicity, HUVEC. It counts as cell-based. As to conditions: 24 hours incubation.
Source text: as §1, §2, §4

Assay [10] has as its system MN-11 (Murine fibrosarcoma). Description: MTT cytotoxicity, MN-11. The assay is classed as cell-based. As to conditions: MN-11, 24 hours incubation.
Source text: as §1, §2, §3, §4

Assay [11] has as its system NCI-N87 (Human gastric carcinoma). Kind of assay: MTT cytotoxicity, NCI-N87. The note with it: NCI-N87, 24 hours incubation. It counts as cell-based.
Source text: as §1, §2, §4

The test system of the next assay is Panc02. Kind of assay: MTT cytotoxicity, Panc02. The assay is classed as cell-based, murine. The note with it: Panc02, 24 hours incubation.
Source text: as §1, §2, §3, §4

Assay [12] has as its system C9 (Human oral cancer cell). Kind of assay: MTT cytotoxicity, C9. It counts as cell-based. As to conditions: C9, 24 hours incubation.
Source text: as §1, §2, §4

The subject of assay [13] is HCT-15 (Human colorectal cancer). Description: MTT cytotoxicity, HCT-15. The assay is classed as cell-based. As to conditions: HCT-15, 24 hours incubation.
Source text: as §1, §2, §4

Assay [14] concerns OECM-1 (Human oral cancer cell). Kind of assay: MTT cytotoxicity, OECM-1. It counts as cell-based. The note with it: OECM-1, 24 hours incubation.
Source text: as §1, §2, §4

Where a SMILES comes first, the peptide text is derived from it. Where no end group is shown, it is not given here.

The term IC50 denotes the point on the concentration scale where inhibition reaches its midpoint. High values mean a need for much substance, low ones inhibition by little substance. Regarding `CC(C)C[C@H](NC(=O)[C@H](Cc1ccc2ccccc2c1)NC(=O)[C@H](CCCCN)NC(=O)[C@H](CC(C)C)NC(=O)[C@H](Cc1c[nH]c2ccccc12)NC(=O)[C@H](CCCCN)NC(=O)[C@H](CCCNC(=N)N)NC(=O)[C@H](Cc1c[nH]c2ccccc12)NC(=O)[C@H](CCCCN)NC(=O)[C@H](CCCCN)NC(=O)[C@H](CCCCN)NC(=O)[C@H](CCCCN)NC(=O)[C@H](CCCCN)NC(=O)[C@@H](N)CCCCN)C(=O)N[C@@H](C)C(=O)N[C@@H](CCCCN)C(N)=O` [SEQ ID NO: 3, KKKK-KK-WRK-WLK-Nal-LAK-NH2] (HELM PEPTIDE1{K.K.K.K.K.K.W.R.K.W.L.K.[O=C([C@H](Cc1ccc2ccccc2c1)N[*:1])[*:2]].L.A.K.[am]}$$$$V2.0; N-terminus assumed), the IC50 was found to be 6.85 µM in assay [1]; 38.4 µM in the assay with RBC (Human blood cell); 17.1 µM in assay [2]; 8.27 µM in assay [3]; 9.15 µM in the assay with HFW (Human fibroblast); 6.32 µM in [4]. Besides, the IC50 is 15.7 µM in assay [5]; 15.4 µM in assay [6]; 7.16 µM in [7]; 5.05 µM in assay [8]; 7.61 µM in assay [9]; 16.1 µM in assay [10]. In addition, the IC50 in assay [11] came to 10.7 µM; with Panc02, 8.43 µM; in [12], 13.2 µM; in [13], 8.89 µM; in assay [14] it was 15.5 µM.
As for “KKKKKKKKWRKWLKWLAKK-NH2 [SEQ ID NO: 1, KKKK-KK-KK-WRK-WLK-WLA-KK-NH2]”, the IC50 came out at 8.48 µM in assay [1]; 52.6 µM with RBC (Human blood cell); 14.7 µM in [2]; 10.6 µM in [3]; 16.3 µM with HFW (Human fibroblast); 16.7 µM in assay [4]. Besides, the IC50 in assay [5] amounted to 13.4 µM; in assay [6], 19.2 µM; in [7], 13.3 µM; in [8], 7.19 µM; in [9], 9.35 µM; in [10], 14.6 µM. Also, the IC50 came to 17.1 µM in [11]; 13.4 µM with Panc02; 21 µM in assay [12]; 12.2 µM in [13]; 18.8 µM in assay [14].
Consider `CC(C)C[C@H](NC(=O)[C@H](Cc1ccc2ccccc2c1)NC(=O)[C@H](CCCNC(=N)N)NC(=O)[C@H](CCCNC(=N)N)NC(=O)[C@H](CCCCN)NC(=O)[C@H](CCCCN)NC(=O)[C@H](CCCCN)NC(=O)[C@@H](N)CCCCN)C(=O)N[C@@H](C)C(=O)N[C@@H](CCCCN)C(N)=O` [SEQ ID NO: 10, KKKK-RR-Nal-LAK-NH2] (HELM PEPTIDE1{K.K.K.K.R.R.[O=C([C@H](Cc1ccc2ccccc2c1)N[*:1])[*:2]].L.A.K.[am]}$$$$V2.0; N-terminus assumed), for which the IC50 in [2] turned out to be 98.4 µM; in the assay on HFW (Human fibroblast), 488 µM; in assay [4], 55.4 µM; in assay [5] it was 84.8 µM; in assay [6], 136 µM; in assay [7], 41.8 µM. In addition, the IC50 was 46.3 µM in assay [8]; 93.5 µM in assay [10]; 82.9 µM in [11]; 75.2 µM in the assay on Panc02; 56.8 µM in assay [12]; 57.6 µM in assay [13]. It took 35.1 µM to reach half-maximal inhibition in assay [14] (IC50).
